ChEMBL document CHEMBL5154677, “On-Demand Activation of a Bioorthogonal Prodrug of SN-38 with Fast Reaction Kinetics and High Releasing Efficiency In Vivo” (J Med Chem, 2022)
Converted amounts (≈) assume the structure as drawn. Blank lines part the entries; values can stand above or below the compound they belong to.

Experiments:
[1] = Dissociation constant , pKa of the compound; assay type: physicochemical
A549 [2] = assay: Cytotoxicity against human A549 cells assessed as reduction in cell viability incubated for 72 hrs in presence of bis(pinacolato)diboron by CCK-8 assay; assay type: functional, cell-based; settings: A549, 72 h
[3] = Stability of prodrug in PBS at pH 7.4 assessed as retention time of drug released measured after 24 hrs by LC-MS analysis; assay type: physicochemical; settings: buffer, pH 7.4, 24 h
[4] = Prodrug activation in human A549 cells assessed as increase in yellow fluorescence at 100 nM incubated for 72 to 120 hrs using FITC staining based laser confocal fluorescence microscopy; assay type: cell-based; settings: a549, 0.1 µM, time 72-120 hrs
[5] = Stability of the prodrug in PBS at pH 6.5 assessed as suppression of hydrolytic opening of the lactone ring by LC-MS analysis; assay type: physicochemical; settings: buffer
[6] = Prodrug activation in human A549 cells assessed as SN-38 release by measuring increase in blue fluorescence intensity at 100 uM in presence of bis(pinacolato)diboron incubated for 1 hr by DAPI staining based confocal fluorescence microscopy; assay type: cell-based; settings: a549, 1 h
A549 [7] = assay: Cytotoxicity against human A549 cells assessed as cell growth inhibition incubated for 120 hrs in presence of bis(pinacolato)diboron by CCK-8 assay; assay type: functional, cell-based; settings: A549, 120 h
A549 [8] = assay: Cytotoxicity against human A549 cells assessed as cell growth inhibition incubated for 120 hrs by CCK-8 assay; assay type: functional, cell-based; settings: A549, 120 h
[9] = Prodrug activation in human A549 cells assessed as SN-38 release by measuring increase in yellow fluorescence at 100 uM in presence of bis(pinacolato)diboron incubated for 1 hr by FITC staining based confocal fluorescence microscopy; assay type: cell-based; settings: a549, 1 h
[10] = Prodrug activation in human A549 cells xenografted in nude mouse assessed as drug release by measuring increase in yellow fluorescence at 5 mg/kg, iv in presence of bis(pinacolato)diboron administered every 5 mins for 1 hr by FITC staining based confocal laser scanning microscopy; assay type: organism-based; settings: in vivo
[11] = Drug uptake in human A549 cells assessed as drug internalization by measuring blue fluorescence at 100 uM incubated for 1 hr by DAPI staining based confocal fluorescence microscopy; assay type: ADME, cell-based; settings: a549, 1 h
[12] = Solubility of compound in PBS; assay type: physicochemical; settings: buffer
[13] = Prodrug activation in human A549 cells assessed as reduction in blue fluorescence at 100 nM incubated for 72 to 120 hrs using DAPI staining based laser confocal fluorescence microscopy; assay type: cell-based; settings: a549, 0.1 µM, time 72-120 hrs
[14] = Drug uptake in human A549 cells assessed as drug internalization by measuring increase in fluorescence intensity at 100 uM incubated for 1 hr by FITC staining based confocal fluorescence microscopy; assay type: ADME, cell-based; settings: a549, 1 h
[15] = Prodrug activation in human A549 cells xenografted in nude mouse assessed as drug release by measuring increase in yellow fluorescence at 5 mg/kg, iv administered every 5 mins for 1 hr by FITC staining based confocal laser scanning microscopy; assay type: organism-based; settings: in vivo
A549 [16] = assay: Cytotoxicity against human A549 cells assessed as reduction in cell viability measured after 72 hrs by CCK-8 assay; assay type: functional, cell-based; settings: A549, 72 h
[17] = Cytotoxicity against HEK293T cells assessed as reduction in cell viability measured after 72 hrs by CCK-8 assay; assay type: toxicity, cell-based, HEK-293T; settings: human
[18] = Prodrug activation in human A549 cells xenografted in nude mouse assessed as drug release by measuring reduction in blue fluorescence at 5 mg/kg, iv in presence of bis(pinacolato)diboron administered every 5 mins for 1 hr by DAPI staining based confocal laser scanning microscopy; assay type: organism-based; settings: in vivo
[19] = Stability of prodrug in PBS at pH 7.4 assessed as 7-hydroxylcoumarin formation at 1 uM measured after 24 hrs by HPLC analysis; assay type: physicochemical; settings: buffer, pH 7.4, 24 h

Compound: Nc1ccc(CO)cc1
- pKa [1]: 9.68

Compound: CCc1c2c(nc3ccc(OCc4ccc([N+](C)(C)[O-])cc4)cc13)-c1cc3c(c(=O)n1C2)COC(=O)[C@]3(O)CC
- IC50 (A549 [2]): 29.6 nM
- Retention_time [3]: 1.8 min
- Drug metabolism [4]: Metabolite_Detected
- Stability [5]: Stable
- Drug metabolism [6]: Metabolite_Detected
- IC50 (A549 [7]): 9.2 nM
- IC50 (A549 [8]): 17.1 nM
- Drug metabolism [9]: Metabolite_Detected
- Drug metabolism [10]: Metabolite_Detected
- Drug uptake [11]: Active
- solubility [12]: 3.2736 µM (≈ 1.77 µg/mL)
- Drug metabolism [13]: Metabolite_Detected
- Drug uptake [14]: Active
- Drug metabolism [15]: Metabolite_Notdetected
- IC50 (A549 [16]): 128 nM
- IC50 at 72 h [17]: 66.3 nM
- Drug metabolism [18]: Metabolite_Detected

Compound: CN(C)c1ccc(CO)cc1
- IC50 at 72 h [17]: > 100000 nM

Continued, in another order:

- Stability [19]: Stable
Compound: C[N+](C)([O-])c1ccc(COc2ccc3ccc(=O)oc3c2)cc1

- pKa [1]: 9.2
- solubility [12]: 0.01101 µM (≈ 0.00432 µg/mL)
Compound: CCc1c2c(nc3ccc(O)cc13)-c1cc3c(c(=O)n1C2)COC(=O)[C@]3(O)CC [7-ETHYL-10-HYDROXYCAMPTOTHECIN]
- IC50 (A549 [8]): 3.8 nM
- IC50 (A549 [16]): 11.9 nM
- IC50 at 72 h [17]: 14.2 nM
